Assay results reported in patent US20200029601A1, “PHENYLACRYLIC ACID SOLUTION FOR BROAD SPECTRUM ANTIMICROBIAL APPLICATIONS FOR FOODSTUFFS” (KLF LABS LLC, priority 2018, published 2020).
Where two headings read alike, the source gives them in different places.

Columns and labels:
Saccharomyces cerevisiae [1] = experiment: Yeast growth in sterile model beverage (Experimental Test 5); type: cell-based; conditions: 300 ppm; model beverage at 4° C.; 72 hours
Procedure: Application experiments were set up using a model beverage. The formulations were tested against Saccharomyces cerevisiae, a yeast well recognized for its beverage spoiling quality. A sterile model beverage was prepared using the formulation indicated in Table 19, with an initial inoculation quantity of 10^4 cells/mL of beverage. […] The OD 660 of each sample was measured 72 hours after initial inoculation using an 8543 Spectrophotometer and the data was compiled using excel, as depicted in Table 20.

Saccharomyces cerevisiae [2] = conditions: 1000 ppm (positive control); pH 4.0; 72 hours
Procedure: Each of the formulations presented above was added to each of the three 20 mL samples of the agar medium.
In connection with this particular experiment, the pH of the samples was adjusted to a pH value of 4.0 by adding a small amount of 0.1 M HCl. The samples were then sterilized with steam at 121° C. for 15 minutes. In one embodiment, 1 mL sample formulations were poured into a 1.5 mL sterile microcentrifuge tube and inoculated with ˜10,000 Saccharomyces cerevisiae cells (e.g., yeast cells). The cells were allowed to grow outwards for 72 hours and then the endpoint concentration of cell growth was determined spectrophotometrically at 660 nm. In samples where cell growth was generally absent cell samples were diluted and counted on a yeast extract peptone dextrose plate. Controls to account for the presence of binder in the absorbance reading were subtracted out in the reporting of the final absorbance. The negative control was diluted twenty times prior to reading the Abs 660 nm.

Zygosaccharomyces rouxii = experiment: microbe, parasite or virus in culture; conditions: 48 h
Procedure: (§1) The media was then sterilized by steam autoclaving the solution for 15 minutes at 121° C. and the media was placed into 3 96 cell plates and pH using either 0.1N HCl or 0.1N NaOH to pH values of 3.1, 5.6, 6.0, 6.5, 7.0, and 7.5.
(§2) Three exemplary embodiment solutions were added and serial diluted into a series of treatment wells and 0.5 McFarland Standard's worth of yeast cells were added to each well. The plates were incubated at 32° C. for 48 hours and then the OD was read at 600 nm. The percent inhibition was graphed as a percentage of the following formula indicated in Equation 1.

Zygosaccharomyces bailii = experiment: microbe, parasite or virus in culture; conditions: 48 h
Procedure: as §1, §2

Saccharomyces cerevisiae [3] = experiment: microbe, parasite or virus in culture; conditions: 48 h
Procedure: as §1, §2

Candida parapsilosis = experiment: microbe, parasite or virus in culture; conditions: Lodderomyces parapsilosis, 48 h
Procedure: as §1, §2

[4] = test system: Lactobacillus acidophilus; conditions: 500 ppm; pH 4.5; 24 hours growth, then plated
Procedure: (§3) In conducting tests with the model organisms, agar medium for 1 L plates were first prepared having the composition indicated in Table 16.
(§4) In connection with this particular experiment, the pH of the samples was adjusted to a pH value of 4.5 by adding a small amount of 0.1 M HCl. The samples were then sterilized with steam at 121° C. for about 15 minutes. The formulations were allowed to cool to 70° F., after which a sample of 10^6 cells of an aforementioned microorganism, as measured using the optical density of the cells, was applied to 1 mL of the individual solutions. Afterwards, samples were allowed to grow for 24 hours. The solutions were diluted one hundred-fold and 10 microliters were applied to a LB media plate and outgrown for 24 additional hours.

Escherichia coli = conditions: 500 ppm; pH 4.5; 24 hours growth, then plated
Procedure: as §3, §4

[5] = pH 3.1, read-out: Percent inhibition
[6] = pH 5.6, read-out: Percent inhibition
[7] = pH 6, read-out: Percent inhibition
[8] = pH 6.5, read-out: Percent inhibition
[9] = pH 7, read-out: Percent inhibition
[10] = pH 7.5, read-out: Percent inhibition

O=C(O)C=Cc1ccccc1 [Phenylacrylic Acid, 3-phenyl-2-propenoic acid]
OD 660 nm (Saccharomyces cerevisiae [1]): 0.51

C/C=C/C=C/C(=O)[O-].[K+] [Potassium Sorbate]
Abs 660 nm after 3 days (Saccharomyces cerevisiae [2]): 0.0396 ± 0.005
Cell Count after 3 days (Saccharomyces cerevisiae [2]): 5.3 × 10^5 CFU/mL
inhibition at 130 ppm (Zygosaccharomyces rouxii; [5]): 39.3%
inhibition at 250 ppm (Zygosaccharomyces rouxii; [5]): 66.7%
inhibition at 500 ppm (Zygosaccharomyces rouxii; [5]): 80.4%
inhibition at 1000 ppm (Zygosaccharomyces rouxii; [5]): 88.6%
inhibition at 2000 ppm (Zygosaccharomyces rouxii; [5]): 84.2%
inhibition at 130 ppm (Zygosaccharomyces rouxii; [6]): 93.7%
inhibition at 250 ppm (Zygosaccharomyces rouxii; [6]): 95.9%
inhibition at 500 ppm (Zygosaccharomyces rouxii; [6]): 37.7%
inhibition at 1000 ppm (Zygosaccharomyces rouxii; [6]): 99.3%
inhibition at 2000 ppm (Zygosaccharomyces rouxii; [6]): 100%
inhibition at 130 ppm (Zygosaccharomyces rouxii; [7]): 0%
inhibition at 250 ppm (Zygosaccharomyces rouxii; [7]): 0%
inhibition at 500 ppm (Zygosaccharomyces rouxii; [7]): 3.4%
inhibition at 1000 ppm (Zygosaccharomyces rouxii; [7]): 17.4%
inhibition at 2000 ppm (Zygosaccharomyces rouxii; [7]): 63.3%
inhibition at 130 ppm (Zygosaccharomyces rouxii; [8]): 19.7%
inhibition at 250 ppm (Zygosaccharomyces rouxii; [8]): 0%
inhibition at 500 ppm (Zygosaccharomyces rouxii; [8]): 6.7%
inhibition at 1000 ppm (Zygosaccharomyces rouxii; [8]): 65.6%
inhibition at 2000 ppm (Zygosaccharomyces rouxii; [8]): 90.6%
inhibition at 130 ppm (Zygosaccharomyces rouxii; [9]): 4.7%
inhibition at 250 ppm (Zygosaccharomyces rouxii; [9]): 9.2%
inhibition at 500 ppm (Zygosaccharomyces rouxii; [9]): 62.7%
inhibition at 1000 ppm (Zygosaccharomyces rouxii; [9]): 86.2%
inhibition at 2000 ppm (Zygosaccharomyces rouxii; [9]): 89.3%
inhibition at 130 ppm (Zygosaccharomyces rouxii; [10]): 7.2%
inhibition at 250 ppm (Zygosaccharomyces rouxii; [10]): 16.5%
inhibition at 500 ppm (Zygosaccharomyces rouxii; [10]): 48.6%
inhibition at 1000 ppm (Zygosaccharomyces rouxii; [10]): 74.9%
inhibition at 2000 ppm (Zygosaccharomyces rouxii; [10]): 95.2%
inhibition at 130 ppm (Zygosaccharomyces bailii; [5]): 91.9%
inhibition at 250 ppm (Zygosaccharomyces bailii; [5]): 96.5%
inhibition at 500 ppm (Zygosaccharomyces bailii; [5]): 99.1%
inhibition at 1000 ppm (Zygosaccharomyces bailii; [5]): 99.7%
inhibition at 2000 ppm (Zygosaccharomyces bailii; [5]): 100%
inhibition at 130 ppm (Zygosaccharomyces bailii; [6]): 70.4%
inhibition at 250 ppm (Zygosaccharomyces bailii; [6]): 86.7%
inhibition at 500 ppm (Zygosaccharomyces bailii; [6]): 95.6%
inhibition at 1000 ppm (Zygosaccharomyces bailii; [6]): 99.7%
inhibition at 2000 ppm (Zygosaccharomyces bailii; [6]): 99.8%
inhibition at 130 ppm (Zygosaccharomyces bailii; [7]): 0%
inhibition at 250 ppm (Zygosaccharomyces bailii; [7]): 0%
inhibition at 500 ppm (Zygosaccharomyces bailii; [7]): 0%
inhibition at 1000 ppm (Zygosaccharomyces bailii; [7]): 1.8%
inhibition at 2000 ppm (Zygosaccharomyces bailii; [7]): 3%
inhibition at 130 ppm (Zygosaccharomyces bailii; [8]): 0%
inhibition at 250 ppm (Zygosaccharomyces bailii; [8]): 0%
inhibition at 500 ppm (Zygosaccharomyces bailii; [8]): 0%
inhibition at 1000 ppm (Zygosaccharomyces bailii; [8]): 0%
inhibition at 2000 ppm (Zygosaccharomyces bailii; [8]): 20%
inhibition at 130 ppm (Zygosaccharomyces bailii; [9]): 0%
inhibition at 250 ppm (Zygosaccharomyces bailii; [9]): 0%
inhibition at 500 ppm (Zygosaccharomyces bailii; [9]): 0%
inhibition at 1000 ppm (Zygosaccharomyces bailii; [9]): 0%
inhibition at 2000 ppm (Zygosaccharomyces bailii; [9]): 16%
inhibition at 130 ppm (Zygosaccharomyces bailii; [10]): 9.7%
inhibition at 250 ppm (Zygosaccharomyces bailii; [10]): 0%
inhibition at 500 ppm (Zygosaccharomyces bailii; [10]): 0%
inhibition at 1000 ppm (Zygosaccharomyces bailii; [10]): 0%
inhibition at 2000 ppm (Zygosaccharomyces bailii; [10]): 0.3%
inhibition at 130 ppm (Saccharomyces cerevisiae [3]; [5]): 99.6%
inhibition at 250 ppm (Saccharomyces cerevisiae [3]; [5]): 99.4%
inhibition at 500 ppm (Saccharomyces cerevisiae [3]; [5]): 99.7%
inhibition at 1000 ppm (Saccharomyces cerevisiae [3]; [5]): 99.8%
inhibition at 2000 ppm (Saccharomyces cerevisiae [3]; [5]): 99.3%
inhibition at 130 ppm (Saccharomyces cerevisiae [3]; [6]): 84.9%
inhibition at 250 ppm (Saccharomyces cerevisiae [3]; [6]): 95.3%
inhibition at 500 ppm (Saccharomyces cerevisiae [3]; [6]): 98.1%
inhibition at 1000 ppm (Saccharomyces cerevisiae [3]; [6]): 99%
inhibition at 2000 ppm (Saccharomyces cerevisiae [3]; [6]): 99.4%
inhibition at 130 ppm (Saccharomyces cerevisiae [3]; [7]): 9.9%
inhibition at 250 ppm (Saccharomyces cerevisiae [3]; [7]): 25%
inhibition at 500 ppm (Saccharomyces cerevisiae [3]; [7]): 50.3%
inhibition at 1000 ppm (Saccharomyces cerevisiae [3]; [7]): 62%
inhibition at 2000 ppm (Saccharomyces cerevisiae [3]; [7]): 76.2%
inhibition at 130 ppm (Saccharomyces cerevisiae [3]; [8]): 17.7%
inhibition at 250 ppm (Saccharomyces cerevisiae [3]; [8]): 28.2%
inhibition at 500 ppm (Saccharomyces cerevisiae [3]; [8]): 48.1%
inhibition at 1000 ppm (Saccharomyces cerevisiae [3]; [8]): 60.6%
inhibition at 2000 ppm (Saccharomyces cerevisiae [3]; [8]): 84.6%
inhibition at 130 ppm (Saccharomyces cerevisiae [3]; [9]): 22%
inhibition at 250 ppm (Saccharomyces cerevisiae [3]; [9]): 37.9%
inhibition at 500 ppm (Saccharomyces cerevisiae [3]; [9]): 53.2%
inhibition at 1000 ppm (Saccharomyces cerevisiae [3]; [9]): 69%
inhibition at 2000 ppm (Saccharomyces cerevisiae [3]; [9]): 84.9%
inhibition at 130 ppm (Saccharomyces cerevisiae [3]; [10]): 19.4%
inhibition at 250 ppm (Saccharomyces cerevisiae [3]; [10]): 44.9%
inhibition at 500 ppm (Saccharomyces cerevisiae [3]; [10]): 55.8%
inhibition at 1000 ppm (Saccharomyces cerevisiae [3]; [10]): 73.6%
inhibition at 2000 ppm (Saccharomyces cerevisiae [3]; [10]): 72.1%
inhibition at 130 ppm (Candida parapsilosis; [5]): 0.9%
inhibition at 250 ppm (Candida parapsilosis; [5]): 5.2%
inhibition at 500 ppm (Candida parapsilosis; [5]): 16.2%
inhibition at 1000 ppm (Candida parapsilosis; [5]): 13.5%
inhibition at 2000 ppm (Candida parapsilosis; [5]): 6.5%
inhibition at 130 ppm (Candida parapsilosis; [6]): 9.5%
inhibition at 250 ppm (Candida parapsilosis; [6]): 12.3%
inhibition at 500 ppm (Candida parapsilosis; [6]): 28.7%
inhibition at 1000 ppm (Candida parapsilosis; [6]): 32.8%
inhibition at 2000 ppm (Candida parapsilosis; [6]): 42.4%
inhibition at 130 ppm (Candida parapsilosis; [7]): 5%
inhibition at 250 ppm (Candida parapsilosis; [7]): 12.8%
inhibition at 500 ppm (Candida parapsilosis; [7]): 7.6%
inhibition at 1000 ppm (Candida parapsilosis; [7]): 4.6%
inhibition at 2000 ppm (Candida parapsilosis; [7]): 2.8%
inhibition at 130 ppm (Candida parapsilosis; [8]): 3.3%
inhibition at 250 ppm (Candida parapsilosis; [8]): 1.1%
inhibition at 500 ppm (Candida parapsilosis; [8]): 0%
inhibition at 1000 ppm (Candida parapsilosis; [8]): 0%
inhibition at 2000 ppm (Candida parapsilosis; [8]): 0.8%
inhibition at 130 ppm (Candida parapsilosis; [9]): 1.7%
inhibition at 250 ppm (Candida parapsilosis; [9]): 8.8%
inhibition at 500 ppm (Candida parapsilosis; [9]): 15.9%
inhibition at 1000 ppm (Candida parapsilosis; [9]): 8.3%
inhibition at 2000 ppm (Candida parapsilosis; [9]): 8.4%
inhibition at 130 ppm (Candida parapsilosis; [10]): 6.2%
inhibition at 250 ppm (Candida parapsilosis; [10]): 0%
inhibition at 500 ppm (Candida parapsilosis; [10]): 0%
inhibition at 1000 ppm (Candida parapsilosis; [10]): 0%
inhibition at 2000 ppm (Candida parapsilosis; [10]): 7.4%
Lactobacillus acidophilus cell count [4]: <2 Log(CFU/mL)
Escherichia coli cell count (Escherichia coli): 5.49 Log(CFU/mL)
